From PubChem BioAssay AID1259418 (Broad Institute, 2018)
Values joined by “and” are separate entries in the source; they are usually repeats but may differ in a detail not shown here. Identical values can stand only once. Records with an inconclusive call do not appear. Active and inactive are the calls of the source.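 Rule for the calls: active = fitted half-maximal concentration of signal decrease at or below twice the sample's top tested concentration; inconclusive = flat curve between -70 and -30 percent, or poor fit; inactive = flat within 30 percent, signal rise, or potency above limit.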

Target: T. gondii ME49Luc in IFN-y HeLa, luciferase, 72 h
Test: inhibitors of Toxoplasma growth in IFN-γ-primed HeLa – cell-based, ME49Luc, luciferase, 72 h, dose response (AID 1259418)

SMILES	AC50
CCc1c(C)sc2c1CCN(Cc1nc(-c3ccc(OC(C)C)cc3)oc1C)C2c1ccccc1 (configuration not stated)	> 39 µM (inactive)
Cc1oc(-c2cccc(Cl)c2)nc1CN(c1ccccc1)S(=O)(=O)c1cccs1	10.4 µM
CC(C)Cc1ccc(S(=O)(=O)N2CCC3(CC2)NCCN=C3NCc2ccc3c(c2)OCO3)cc1	5.76 µM
COc1cc([C@@H]2c3cc4c(cc3C(OC3OC5COC(C)OC5C(O)C3O)C3OCC(=O)[C@@H]32)OCO4)cc(OC)c1O (some centres not stated)	8.96 µM
Cc1nc(CCNC(=O)C2CCN(C(=O)c3cccc(Cl)c3)CC2)cs1	31.5 µM
Cc1ccc(S(=O)(=O)N2CCC3(CC2)NCCN=C3NC2CCCCCC2)c(C)c1	14.2 µM
O=S(=O)(c1ccc2c(c1)CCCC2)N1CCC2(CC1)NCCN=C2NCc1ccccc1F	16.4 µM
COc1ccc(CN2CCC(c3cc4c(ncn4C)c(-c4ccc(OC)cc4)n3)CC2)cc1	24.7 µM
Cc1cccc(C(=O)N2CCC(C(=O)NCCc3csc(C)n3)CC2)c1	26.4 µM
CCCNC(=O)N1CC(=O)N2[C@@H](CO)[C@@H](c3ccc(C#Cc4cccc(OC)c4)cc3)[C@@H]2C1	19.2 µM
O=S(=O)(c1ccccc1)N1CCCCN2[C@@H](CO)[C@@H](c3ccc(C#CC4CCCC4)cc3)[C@@H]2C1	17.5 µM and 6.86 µM
CC(C)C#Cc1ccc([C@H]2[C@@H](C#N)N(C(=O)c3cccc(F)c3)[C@@H]2CO)cc1	22 µM
Cc1ccc(-c2nc(CN3CCN(C(=O)NC4CCCC4)CC3)c(C)o2)cc1	20.9 µM
COc1ccc(-c2nc(NCC3CCN(CCc4ccc(F)cc4)CC3)c3ccccc3n2)cc1	12.2 µM
COc1cccc(S(=O)(=O)N2CCCCN3[C@H](CO)[C@H](c4ccc(C#CC5CC5)cc4)[C@H]3C2)c1	10.8 µM and 2.78 µM
O=C(Cc1ccc(Cl)cc1)N1CC2(CCN(Cc3ccc(C(F)(F)F)cc3)CC2)C1	22.2 µM
O=C(c1ccccc1Cl)N1CCC2(CC1)Nc1cc(F)ccc1-n1cccc12	> 39 µM (inactive)
CN1C(=O)c2cc(NC(=O)c3cccc(F)c3)ccc2OC[C@H]2O[C@@H](CC(=O)NCC3CCCCC3)CC[C@H]21	18.6 µM and 10.5 µM and 24.5 µM
Cc1ccc(CSC2=Nc3ccccc3C3=NC(CCC(=O)NCc4cccs4)C(=O)N23)cc1 (configuration not stated)	17.5 µM
Cc1ccc2c(c1)c(Cn1cc(-c3sccc3C)nn1)nn2C	20.2 µM and 28.7 µM
COc1cccc(NC(=O)N2CC(=O)N3[C@@H](CO)[C@@H](c4ccc(C#CCC5CCCC5)cc4)[C@@H]3C2)c1	22.5 µM
Cc1ccc(-c2coc(-c3ccc(NS(=O)(=O)c4ccc(Br)cc4)cc3)n2)c(C)c1	27.9 µM
Clc1ccc(-c2nc(N3CCC(c4ccccc4)C3)c3ccccc3n2)cc1 (configuration not stated)	32.4 µM
COc1ccc(S(=O)(=O)N2CCCCN3[C@H](C2)[C@@H](c2ccc(C#CCC(C)C)cc2)[C@@H]3CO)cc1	12.3 µM

SMILES	AC50
N#C[C@@H]1[C@H](c2ccc(-c3cccc(F)c3)cc2)[C@@H](CO)N1C(=O)NC1CCCC1	20.4 µM
O=S(=O)(c1ccc2c(c1)CCCC2)N1CCC2(CC1)NCCN=C2NCc1cc(F)cc(F)c1	4.41 µM
O=C(c1ccc[nH]1)N1CCC2(CC1)COCCN(c1ncccn1)C2	7.07 µM
N#C[C@H]1[C@H](c2ccc(-c3cccc(F)c3)cc2)[C@H](CO)N1C(=O)NC1CCCC1	18.9 µM
CC(C)NC(=O)N1CC(=O)N2[C@@H](CO)[C@H](c3ccc(/C=C/c4ccccc4)cc3)[C@@H]2C1	16.8 µM
Cc1ccc(CSC2=Nc3ccccc3C3=NC(CC(=O)NCc4ccc5c(c4)OCO5)C(=O)N23)cc1 (configuration not stated)	> 39 µM (inactive)
COCCCNc1ncnc2c1cnn2-c1cccc(C)c1	14.6 µM
O=C(Cc1ccccc1)N1CC(=O)N2[C@H](CO)[C@@H](c3ccc(-c4ccc(F)cc4)cc3)[C@H]2C1	22.2 µM
CN(C[C@H]1N[C@@H](CO)[C@H]1c1ccc(-c2ccc(F)cc2)cc1)C(=O)C1CCC1	16.2 µM
COc1cccc(NC(=O)N2CC(=O)N3[C@H](C2)[C@H](c2ccc(C#CCC4CCCC4)cc2)[C@@H]3CO)c1	14.2 µM and 9.85 µM
CCCNC(=O)N1CCN(Cc2nc(-c3ccc(C)cc3)oc2C)CC1	26.1 µM
COc1ccc(-c2nc(CSc3nc4c(c(=O)[nH]3)CN(Cc3ccc(F)cc3)CC4)c(C)o2)cc1	23.2 µM
OC[C@H]1N[C@@H](CNCC2CCC2)[C@@H]1c1ccc(C2=CCCCC2)cc1	12.4 µM and 20.4 µM
COc1cccc(NC(=O)N2CC(=O)N3[C@H](C2)[C@@H](c2ccc(C#CCC4CCCC4)cc2)[C@@H]3CO)c1	17 µM and 3.35 µM
CCCCNC(=O)CCC1N=C2c3ccccc3N=C(SCc3cccc(Cl)c3)N2C1=O (configuration not stated)	14.6 µM
COc1ccccc1-c1noc(-c2nnn(Cc3nc(-c4ccc(C)cc4)oc3C)c2C)n1	15 µM
O=C(NCc1ccc(F)cc1F)c1cc(-c2cnc(N3CCCC3)nc2)cn1CC1CC1	13.2 µM
CCC(C(=O)N1CCC2(CC1)Nc1ccc(Cl)cc1-n1cccc12)c1ccccc1 (configuration not stated)	> 39 µM (inactive)
CCOc1ccccc1N(Cc1nc(-c2ccc(C)cc2)oc1C)S(=O)(=O)c1cccs1	9.38 µM
CCCNC(=O)N1C[C@@H]2N[C@H](C1)C2c1ccc(-c2ccc(OC)cc2)cc1 (some centres not stated)	17.9 µM and 23.9 µM
COc1ccccc1CN1CC[C@@H]2[C@H]1c1cc(-c3cccc(C(=O)N(C)C)c3)ccc1N[C@@H]2CO	19.6 µM
CCN1CCCC1CNC(=O)C1CCN(Cc2cc3ccccc3n2Cc2ccccc2Cl)CC1 (configuration not stated)	28.7 µM
Cc1nc(OCC(=O)NCc2ccc3c(c2)OCO3)c2ccccc2n1	21.2 µM
